Assay results published in ChEMBL document CHEMBL6114990, “Design, synthesis, and biological evaluation of quinazolinone-dihydropyrimidinone as a potential anti-diabetic agent via GLUT4 translocation stimulation” (Eur J Med Chem, 2025).
≈ marks a conversion by molar mass, not a printed value. Calls of active or inactive are those of the source. The calls are words filed in the database; no cut-off is given here.

How the values were obtained:
[1] = target: T1, Solute carrier family 2, facilitated glucose transporter member 4 (Rattus norvegicus) (UniProt P19357); assay: Induction of GLUT4 translocation in rat L6-GLUT4myc skeletal muscle cells assessed as translocation to cell surface by measuring fold stimulation at 10 uM measured after 16 hrs by antibody-coupled colorimetric assay; type: cell-based; conditions: filed as activator
T1 sequence (whole entry): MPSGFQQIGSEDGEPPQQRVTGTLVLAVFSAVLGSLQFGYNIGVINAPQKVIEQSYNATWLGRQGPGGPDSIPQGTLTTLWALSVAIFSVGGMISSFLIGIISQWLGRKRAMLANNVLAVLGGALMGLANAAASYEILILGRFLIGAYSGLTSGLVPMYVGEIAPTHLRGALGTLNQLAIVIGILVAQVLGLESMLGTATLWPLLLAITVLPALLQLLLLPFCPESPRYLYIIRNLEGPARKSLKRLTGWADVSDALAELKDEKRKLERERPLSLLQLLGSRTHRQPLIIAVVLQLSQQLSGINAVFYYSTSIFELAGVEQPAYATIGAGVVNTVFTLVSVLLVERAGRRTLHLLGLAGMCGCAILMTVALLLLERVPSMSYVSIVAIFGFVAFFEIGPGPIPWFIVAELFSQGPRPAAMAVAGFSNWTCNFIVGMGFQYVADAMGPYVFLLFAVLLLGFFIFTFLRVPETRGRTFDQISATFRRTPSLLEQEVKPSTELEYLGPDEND

[2] = target: T1, Solute carrier family 2, facilitated glucose transporter member 4 (Rattus norvegicus); assay: Induction of GLUT4 translocation in rat L6-GLUT4myc skeletal muscle cells assessed as translocation to cell surface measured after 16 hrs by antibody-coupled colorimetric assay; type: cell-based; conditions: filed as activator, dose 5-25 µM
[3] = target: T1, Solute carrier family 2, facilitated glucose transporter member 4 (Rattus norvegicus); assay: (§1) Induction of insulin-induced GLUT4 translocation in rat L6-GLUT4myc skeletal muscle cells assessed as translocation to cell surface at 10 uM measured after 16 hrs incubation (final 3 hrs under serum starved medium) followed by stimulated with 100 nM insulin for 20 mins by antibody-coupled colorimetric assay; type: cell-based; conditions: filed as activator, time 980.0 min
[4] = target: T1, Solute carrier family 2, facilitated glucose transporter member 4 (Rattus norvegicus); assay: as §1, with “mins in presence of wortmannin PI3 Kinase inhibitor” for “mins”; type: cell-based; conditions: time 980.0 min
L6-GLUT4myc [5] = assay: Induction of AKT phosphorylation at Ser 473 residue in rat L6-GLUT4myc skeletal muscle cells at 10 uM measured after 16 hrs by Western blot analysis; type: cell-based
[6] = target: 5'-AMP-activated protein kinase catalytic subunit alpha-1 (Rattus norvegicus) (UniProt P54645); assay: Activation of AMPKalpha in rat L6-GLUT4myc cells assessed as induction of AMPKalpha phosphorylation at Thr172 residue at 10 uM measured for 16 hrs by Western blot analysis; type: cell-based; conditions: filed as activator
L6-GLUT4myc [7] = assay: Effect on GLUT4 expression in rat L6-GLUT4myc cells at 10 uM incubated for 16 hrs by qRT-PCR analysis; type: functional, cell-based
L6-GLUT4myc [8] = assay: Effect on IRS1 expression in rat L6-GLUT4myc cells at 10 uM incubated for 16 hrs by qRT-PCR analysis; type: functional, cell-based
L6-GLUT4myc [9] = assay: Effect on AKT2 expression in rat L6-GLUT4myc cells at 10 uM incubated for 16 hrs by qRT-PCR analysis; type: functional, cell-based
Rattus norvegicus [10] = assay: Anti-hyperglycemic activity against STZ-induced diabetic Sprague-Dawley rat model assessed as reduction in blood glucose level at 100 mg/kg, po measured after 5 hrs relative to control; type: functional; parameters: scale not given: the % may be the effect or the level left
[11] = Stability of compound in simulated physiological fluid at pH 7.4 assessed as parent compound remaining measured after 120 mins by LC-MS/MS analysis; type: physicochemical; conditions: read-out: Stability
[12] = Stability of compound in simulated gastric fluid at pH 1.2 assessed as parent compound remaining measured after 120 mins by LC-MS/MS analysis; type: physicochemical; conditions: read-out: Stability
[13] = Stability of compound in simulated intestinal fluid at pH 6.8 assessed as parent compound remaining measured after 120 mins by LC-MS/MS analysis; type: physicochemical; conditions: read-out: Stability
[14] = Thermodynamic solubility of compound in distilled water measured for 24 hrs by HPLC analysis; type: physicochemical; conditions: read-out: Therm_solubility
[15] = Thermodynamic solubility of compound in HCL buffer at pH 1.2 measured for 24 hrs by HPLC analysis; type: physicochemical; conditions: read-out: Therm_solubility
[16] = Thermodynamic solubility of compound in tris buffer at pH 7.4 measured for 24 hrs by HPLC analysis; type: physicochemical; conditions: read-out: Therm_solubility
[17] = Metabolic stability in rat liver microsome assessed as half life measured upto 60 mins by HPLC analysis; type: ADME; conditions: microsomes, 1 h
[18] = Metabolic stability in rat liver microsome assessed as intrinsic clearance measured upto 60 mins by HPLC analysis; type: ADME; conditions: microsomes, 1 h
[19] = target: T1, Solute carrier family 2, facilitated glucose transporter member 4 (Rattus norvegicus); assay: Induction of GLUT4 translocation in rat L6-GLUT4myc skeletal muscle cells assessed as translocation to cell surface by measuring fold stimulation at 500 uM measured after 16 hrs by antibody-coupled colorimetric assay; type: cell-based; conditions: filed as activator
Rattus norvegicus [20] = assay: Anti-hyperglycemic activity against STZ-induced diabetic Sprague-Dawley rat model assessed as reduction in blood glucose level at 300 mg/kg, po measured after 5 hrs relative to control; type: functional; parameters: scale not given: the % may be the effect or the level left

5'-AMP-activated protein kinase catalytic subunit alpha-1 (Rattus norvegicus), sequence (P54645 whole entry): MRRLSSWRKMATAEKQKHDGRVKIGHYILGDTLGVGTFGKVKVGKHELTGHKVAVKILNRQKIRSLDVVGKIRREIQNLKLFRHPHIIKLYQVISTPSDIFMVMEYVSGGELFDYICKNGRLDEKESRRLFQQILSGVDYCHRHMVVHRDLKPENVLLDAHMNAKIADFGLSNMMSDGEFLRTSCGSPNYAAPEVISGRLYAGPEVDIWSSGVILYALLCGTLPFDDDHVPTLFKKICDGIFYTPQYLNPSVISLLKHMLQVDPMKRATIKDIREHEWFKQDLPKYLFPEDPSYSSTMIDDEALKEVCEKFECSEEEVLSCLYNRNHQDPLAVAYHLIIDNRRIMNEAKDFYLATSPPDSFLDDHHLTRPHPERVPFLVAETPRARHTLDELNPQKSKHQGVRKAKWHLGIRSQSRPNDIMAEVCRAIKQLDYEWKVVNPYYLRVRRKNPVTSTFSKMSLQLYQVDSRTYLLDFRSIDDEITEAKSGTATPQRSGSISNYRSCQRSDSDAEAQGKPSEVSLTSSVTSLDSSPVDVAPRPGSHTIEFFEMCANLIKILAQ

fold change (FC) [1] | Compound | further results
1.01 | COc1ccc(C2NC(=O)NC(C)=C2C(=O)Nc2ccc(-c3nc4ccccc4c(=O)n3C)cc2)cc1OC (stereo not given) | 
1.21 | CC1=C(C(=O)Nc2ccc(-c3nc4ccccc4c(=O)n3C)cc2)C(c2ccc([N+](=O)[O-])cc2)NC(=O)N1 (stereo not given) | 
1.32 | CCn1c(-c2ccc(NC(=O)C3=C(C)NC(=O)NC3c3ccccc3)cc2)nc2ccccc2c1=O (stereo not given) | 
1.29 | CCn1c(-c2ccc(NC(=O)C3=C(C)NC(=O)NC3c3ccsc3)cc2)nc2ccccc2c1=O (stereo not given) | 
1.08 | CC1=C(C(=O)Nc2ccc(-c3nc4ccccc4c(=O)n3C)cc2)C(c2ccc(N(C)C)cc2)NC(=O)N1 (stereo not given) | 
1.27 | CC1=C(C(=O)Nc2ccc(-c3nc4ccccc4c(=O)n3C)cc2)C(c2ccc(F)cc2)NC(=O)N1 (stereo not given) | 
1 | CC1=C(C(=O)Nc2cccc(-c3nc4ccccc4c(=O)n3C)c2)C(c2ccc([N+](=O)[O-])cc2)NC(=O)N1 (stereo not given) | 
1.7 | CCn1c(-c2ccc(NC(=O)C3=C(C)NC(=O)NC3c3ccc(Cl)cc3)cc2)nc2ccccc2c1=O (stereo not given) | 
1.7 | CC1=C(C(=O)Nc2ccc(-c3nc4ccccc4c(=O)n3C)cc2)C(c2ccc(Cl)cc2)NC(=O)N1 (stereo not given) | 
1.02 | COc1ccc(C2NC(=O)NC(C)=C2C(=O)Nc2cccc(-c3nc4ccccc4c(=O)n3C)c2)cc1OC (stereo not given) | 
2.52 | CC1=C(C(=O)Nc2ccc(-c3nc4ccccc4c(=O)n3C)cc2)C(c2ccc(Cl)cc2Cl)NC(=O)N1 (stereo not given) | Activity [2]: Dose-dependent-effect; Activity [3]: Active; Activity [4]: inactive; Activity (L6-GLUT4myc [5]): No effect; Activity [6]: Active; Activity (L6-GLUT4myc [7]): No effect; Activity (L6-GLUT4myc [8]): No effect; Activity (L6-GLUT4myc [9]): No effect; Activity (Rattus norvegicus [10]): ~39.5%; remaining at 2 h [11]: ≥ 60%; remaining at 2 h [12]: ≥ 60%; remaining at 2 h [13]: ≥ 60%; solubility thermodynamic at 24 h [14]: 0.36 µg/mL (≈ 0.674 µM); solubility thermodynamic at 24 h [15]: 23.8 µg/mL (≈ 44.6 µM); solubility thermodynamic at 24 h [16]: 0.25 µg/mL (≈ 0.468 µM); t1/2 [17]: 3.16 min; CLH [18]: 1.336 µL/min/mg
1.24 | CC(=O)CC(=O)Nc1ccc(-c2nc3ccccc3c(=O)n2C)cc1 | 
1.27 | CC1=C(C(=O)Nc2ccc(-c3nc4ccccc4c(=O)n3C)cc2)C(c2cccs2)NC(=O)N1 (stereo not given) | 
1.15 | CC1=C(C(=O)Nc2ccc(-c3nc4cccc(Cl)c4c(=O)n3C)cc2)C(c2ccc(Cl)cc2Cl)NC(=O)N1 (stereo not given) | 
1.28 | COc1ccc(C2NC(=O)NC(C)=C2C(=O)Nc2ccc(-c3nc4ccccc4c(=O)n3C)cc2)cc1 (stereo not given) | 
1.05 | CC1=C(C(=O)Nc2ccc(-c3nc4ccccc4c(=O)n3C)cc2)C(c2scnc2C)NC(=O)N1 (stereo not given) | 

fold change (FC) [1] | Compound | further results
1.1 | CC1=C(C(=O)Nc2ccc(-c3nc4ccccc4c(=O)n3C)cc2)C(c2ccc(C#N)cc2)NC(=O)N1 (stereo not given) | 
1.14 | CC1=C(C(=O)Nc2cccc(-c3nc4ccccc4c(=O)n3C)c2)C(c2ccc(Cl)cc2Cl)NC(=O)N1 (stereo not given) | 
1.1 | CC1=C(C(=O)Nc2cccc(-c3nc4ccccc4c(=O)n3C)c2)C(c2ccco2)NC(=O)N1 (stereo not given) | 
1.11 | CC1=C(C(=O)Nc2ccc(-c3nc4ccccc4c(=O)n3C)cc2)C(c2ccco2)NC(=O)N1 (stereo not given) | 
1.13 | CC1=C(C(=O)Nc2cccc(-c3nc4ccccc4c(=O)n3C)c2)C(c2ccc(F)cc2)NC(=O)N1 (stereo not given) | 
1.51 | CC1=C(C(=O)Nc2ccc(-c3nc4ccccc4c(=O)n3C)cc2)C(c2ccccc2Cl)NC(=O)N1 (stereo not given) | 
1.16 | CC1=C(C(=O)Nc2cccc(-c3nc4ccccc4c(=O)n3C)c2)C(c2cccs2)NC(=O)N1 (stereo not given) | 
1.54 | CC1=C(C(=O)Nc2ccc(-c3nc4ccccc4c(=O)n3C)cc2)C(c2ccc(C(F)(F)F)cc2)NC(=O)N1 (stereo not given) | 
1.92 | CC1=C(C(=O)Nc2ccc(-c3nc4ccccc4c(=O)n3C)cc2)C(c2cccc(Cl)c2)NC(=O)N1 (stereo not given) | Activity [2]: Dose-dependent-effect
1.32 | CCn1c(-c2ccc(NC(=O)C3=C(C)NC(=O)NC3c3ccco3)cc2)nc2ccccc2c1=O (stereo not given) | 
1.14 | CC1=C(C(=O)Nc2ccc(-c3nc4ccccc4c(=O)n3C)cc2)C(CC(C)C)NC(=O)N1 (stereo not given) | 
1.31 | CCn1c(-c2ccc(NC(=O)C3=C(C)NC(=O)NC3c3scnc3C)cc2)nc2ccccc2c1=O (stereo not given) | 
 | CN(C)C(=N)NC(=N)N [METFORMIN] | fold change (FC) [19]: 1.65; Activity (Rattus norvegicus [20]): 64.7%
1.17 | CC1=C(C(=O)Nc2cccc(-c3nc4ccccc4c(=O)n3C)c2)C(c2ccc(Cl)cc2)NC(=O)N1 (stereo not given) | 
1.63 | CC1=C(C(=O)Nc2ccc(-c3nc4ccccc4c(=O)n3C)cc2)C(c2ccc(Cl)c(Cl)c2)NC(=O)N1 (stereo not given) | 
